The values that follow are results of earlier work, collected in US8101207B2, “Composition containing medicine extremely slightly soluble in water and method for preparation thereof” (Kowa Co., Ltd., priority 2003, dated 2012).

The subject of one series is interleukin-1β. Conditions: known from Japanese Patent Application Laid-Open (kokai) No. 12-198776.

For `CSc1ccc(-c2nn(Cc3ccccc3)c(=O)cc2-c2ccc(Cl)cc2)cc1` [Compound A, 2-benzyl-5-(4-chlorophenyl)-6-[4-(methylthio)phenyl]-2H-pyridazin-3-one], the solubility in water entry is “very low solubility”. Moreover, the “effect of inhibiting production of interleukin-1β” value in the series with interleukin-1β was “excellent effect”.
